Data: the NIST ThermoML archive (doi:10.1016/j.tca.2009.09.001)
Numbers after ± are expanded uncertainties.

Columns and labels:
[1] = Crystal; DTA
[2] = Molar enthalpy of transition or fusion; settings: Crystal; DSC

With O[C@@H]1CCCC[C@H]1O (relative stereo) [trans-1,2-cyclohexanediol] the Normal melting temperature [1] was 99 ± 1 °C and the “Molar enthalpy of transition or fusion” value [2] was 8.22 ± 0.239 kcal/mol.

With O[C@H]1CCCC[C@@H]1O [1,2-cyclohexanediol, (1S,2S)-] the Normal melting temperature [1] was 104 ± 1 °C and the “Molar enthalpy of transition or fusion” value [2] was 3.59 ± 0.12 kcal/mol.

In the case of O[C@@H]1CCCC[C@H]1O [(1R,2R)-1,2-cyclohexanediol], the Normal melting temperature [1] is reported as 108 ± 1 °C and the “Molar enthalpy of transition or fusion” value [2] is reported as 4.3 ± 0.143 kcal/mol.

In the case of O=C(O)[C@H](O)[C@@H](O)C(=O)O [(2R,3R)-2,3-dihydroxybutanedioic acid], the Normal melting temperature [1] is reported as 171 ± 1 °C and the “Molar enthalpy of transition or fusion” value [2] is reported as 5.35 ± 0.167 kcal/mol.
